pIC50: −log10 of the molar value.
Assays:
[1] = molecular target: Serine/threonine-protein kinase PLK1 (Homo sapiens, UniProt P53350); experiment: Inhibition of PLK1 (unknown origin) by FRET-based homogeneous assay
[2] = molecular target: Serine/threonine-protein kinase PLK3 (Homo sapiens, UniProt Q9H4B4); experiment: Inhibition of PLK3 (unknown origin) by FRET-based homogeneous assay
[3] = molecular target: T1, Serine/threonine-protein kinase PLK4 (Homo sapiens, UniProt O00444); experiment: Inhibition of N-terminal GST-tagged human PLK4 (1 to 391 amino acids) expressed in Escherichia coli using TMB as substrate after 30 mins by indirect ELISA assay
T1 sequence (O00444 whole entry): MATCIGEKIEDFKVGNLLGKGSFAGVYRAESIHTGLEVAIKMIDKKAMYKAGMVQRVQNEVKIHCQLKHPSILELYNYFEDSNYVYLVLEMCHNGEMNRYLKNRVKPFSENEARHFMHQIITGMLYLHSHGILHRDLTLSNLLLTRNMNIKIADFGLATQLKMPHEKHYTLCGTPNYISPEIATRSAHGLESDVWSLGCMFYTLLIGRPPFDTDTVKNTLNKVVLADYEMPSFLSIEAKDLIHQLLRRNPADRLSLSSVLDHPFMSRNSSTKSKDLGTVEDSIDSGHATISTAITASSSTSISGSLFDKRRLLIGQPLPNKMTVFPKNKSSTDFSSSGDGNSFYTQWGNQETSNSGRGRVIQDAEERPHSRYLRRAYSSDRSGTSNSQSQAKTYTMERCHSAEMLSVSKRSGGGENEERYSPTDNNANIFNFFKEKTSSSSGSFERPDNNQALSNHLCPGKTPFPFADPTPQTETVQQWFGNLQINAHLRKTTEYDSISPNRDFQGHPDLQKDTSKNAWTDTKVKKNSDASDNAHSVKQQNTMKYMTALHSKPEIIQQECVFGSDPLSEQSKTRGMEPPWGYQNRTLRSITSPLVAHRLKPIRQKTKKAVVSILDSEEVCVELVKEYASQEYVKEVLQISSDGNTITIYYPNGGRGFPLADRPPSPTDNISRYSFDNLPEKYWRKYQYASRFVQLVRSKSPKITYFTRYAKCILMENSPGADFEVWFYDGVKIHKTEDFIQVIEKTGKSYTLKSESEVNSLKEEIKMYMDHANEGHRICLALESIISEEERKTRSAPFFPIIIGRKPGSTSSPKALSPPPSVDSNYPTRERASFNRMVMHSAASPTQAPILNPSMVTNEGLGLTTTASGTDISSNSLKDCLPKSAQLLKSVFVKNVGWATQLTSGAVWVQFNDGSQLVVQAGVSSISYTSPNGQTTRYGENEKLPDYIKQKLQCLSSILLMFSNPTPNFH

[4] = molecular target: Serine/threonine-protein kinase PLK2 (Homo sapiens, UniProt Q9NYY3); experiment: Inhibition of PLK2 (unknown origin) by FRET-based homogeneous assay
HCC1954 = experiment: Antiproliferative activity against human HCC1954 cells assessed as growth inhibition after 5 days by SRB assay; format: functional; details: HCC1954, 120 h
MCF7 = experiment: Antiproliferative activity against human MCF7 cells assessed as growth inhibition after 5 days by SRB assay; format: functional; details: MCF7, 120 h
MDA-MB-231 = experiment: Antiproliferative activity against human MDA-MB-231 cells assessed as growth inhibition after 5 days by SRB assay; format: functional; details: MDA-MB-231, 120 h
MDA-MB-468 = experiment: Antiproliferative activity against human MDA-MB-468 cells assessed as growth inhibition after 5 days by SRB assay; format: functional; details: MDA-MB-468, 120 h
SK-BR-3 = experiment: Antiproliferative activity against human SKBR3 cells assessed as growth inhibition after 5 days by SRB assay; format: functional; details: SK-BR-3, 120 h
[5] = Permeability of the compound at pH 7.4 by PAMPA; format: ADME; details: read-out: permeability

Chain of Serine/threonine-protein kinase PLK3 (Q9H4B4 whole entry, the tested form may be a part): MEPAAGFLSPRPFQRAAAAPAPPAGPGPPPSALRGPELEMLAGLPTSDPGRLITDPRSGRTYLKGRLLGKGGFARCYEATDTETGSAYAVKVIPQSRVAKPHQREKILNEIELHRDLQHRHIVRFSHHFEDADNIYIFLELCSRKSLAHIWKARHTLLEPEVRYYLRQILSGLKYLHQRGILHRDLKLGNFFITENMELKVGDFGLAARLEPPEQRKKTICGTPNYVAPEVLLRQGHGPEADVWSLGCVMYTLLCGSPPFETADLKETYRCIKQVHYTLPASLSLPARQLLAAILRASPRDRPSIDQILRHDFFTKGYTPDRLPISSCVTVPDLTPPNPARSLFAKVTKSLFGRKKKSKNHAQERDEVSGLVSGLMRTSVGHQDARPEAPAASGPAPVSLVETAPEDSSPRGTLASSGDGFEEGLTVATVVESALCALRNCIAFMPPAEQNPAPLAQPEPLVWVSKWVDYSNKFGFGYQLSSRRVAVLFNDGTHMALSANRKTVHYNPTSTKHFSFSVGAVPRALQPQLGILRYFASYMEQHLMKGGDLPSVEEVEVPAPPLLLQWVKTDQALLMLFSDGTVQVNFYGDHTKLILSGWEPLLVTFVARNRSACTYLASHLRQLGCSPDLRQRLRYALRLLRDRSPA
Chain of Serine/threonine-protein kinase PLK2 (Q9NYY3 whole entry): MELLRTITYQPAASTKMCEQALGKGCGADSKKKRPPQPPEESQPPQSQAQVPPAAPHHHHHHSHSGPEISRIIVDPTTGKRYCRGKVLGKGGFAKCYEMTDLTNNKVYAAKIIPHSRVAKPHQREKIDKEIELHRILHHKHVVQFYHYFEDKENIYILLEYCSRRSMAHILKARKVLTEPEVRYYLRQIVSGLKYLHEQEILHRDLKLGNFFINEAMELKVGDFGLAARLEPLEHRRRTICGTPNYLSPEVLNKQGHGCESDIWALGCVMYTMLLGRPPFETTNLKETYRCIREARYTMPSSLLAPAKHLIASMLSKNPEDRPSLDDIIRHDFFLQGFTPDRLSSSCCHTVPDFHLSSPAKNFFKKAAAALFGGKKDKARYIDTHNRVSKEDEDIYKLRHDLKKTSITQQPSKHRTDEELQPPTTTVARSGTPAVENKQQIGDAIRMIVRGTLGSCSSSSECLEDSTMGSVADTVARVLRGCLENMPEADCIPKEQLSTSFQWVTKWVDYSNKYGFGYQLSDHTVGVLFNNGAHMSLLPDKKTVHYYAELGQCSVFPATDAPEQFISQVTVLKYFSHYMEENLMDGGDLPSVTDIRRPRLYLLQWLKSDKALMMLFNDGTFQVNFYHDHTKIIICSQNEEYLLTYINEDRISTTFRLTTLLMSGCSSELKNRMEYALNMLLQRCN
Chain of Serine/threonine-protein kinase PLK1 (P53350 whole entry): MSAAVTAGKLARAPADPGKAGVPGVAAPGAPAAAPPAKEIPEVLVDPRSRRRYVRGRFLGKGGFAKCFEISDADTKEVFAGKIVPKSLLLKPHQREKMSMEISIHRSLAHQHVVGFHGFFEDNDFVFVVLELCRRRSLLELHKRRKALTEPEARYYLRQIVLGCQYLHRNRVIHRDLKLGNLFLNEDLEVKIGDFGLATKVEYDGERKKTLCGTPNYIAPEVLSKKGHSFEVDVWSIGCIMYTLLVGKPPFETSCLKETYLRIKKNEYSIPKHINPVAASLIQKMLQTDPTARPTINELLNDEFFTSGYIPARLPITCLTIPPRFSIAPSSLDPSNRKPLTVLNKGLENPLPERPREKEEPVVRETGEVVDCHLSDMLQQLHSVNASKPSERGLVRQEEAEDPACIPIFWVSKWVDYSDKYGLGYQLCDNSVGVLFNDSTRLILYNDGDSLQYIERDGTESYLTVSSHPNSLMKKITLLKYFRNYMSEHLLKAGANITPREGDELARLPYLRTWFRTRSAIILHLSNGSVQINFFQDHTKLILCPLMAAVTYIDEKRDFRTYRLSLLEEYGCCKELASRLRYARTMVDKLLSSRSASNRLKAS

SMILES | pIC50 [1] | pIC50 [2] | pIC50 [3] | pIC50 [4] | GI50 (HCC1954) | GI50 (MCF7) | GI50 (MDA-MB-231) | GI50 (MDA-MB-468) | GI50 (SK-BR-3) | Papp [5]
O=C1Nc2cc(Cl)ccc2/C1=C\c1ccc2cn[nH]c2c1 | 4.59 | < 5.00 | 5.89 | < 5.00 | – | – | – | – | – | –
CC(=O)Nc1ccc2c(c1)/C(=C\c1ccc3cn[nH]c3c1)C(=O)N2 | < 5.00 | < 5.00 | 5.20 | 5.00 | – | – | – | – | – | –
O=C1Nc2ccccc2/C1=C/c1cccc(O)c1 | 4.60 | – | 6.07 | – | – | – | – | – | – | –
O=C1Nc2ccc(Br)cc2/C1=C/c1ccc(O)c(O)c1 | < 5.00 | – | 4.89 | – | – | – | – | – | – | –
COc1cc(/C=C2\C(=O)Nc3ccc(Br)cc32)cc(Br)c1OC | < 5.00 | – | 4.89 | – | – | – | – | – | – | –
COc1ccc2c(c1)/C(=C\c1ccc3c(/C=C/c4ccncc4)n[nH]c3c1)C(=O)N2 | < 5.00 | < 5.00 | 9.35 | < 5.00 | 3.1 µM | 0.04 µM | 21 µM | 0.14 µM | – | –
O=C1Nc2ccc(F)cc2/C1=C\c1ccc2cn[nH]c2c1 | 4.82 | – | 7.22 | 5.36 | – | – | – | – | – | –
COc1ccc2c(c1)/C(=C\c1ccc3c(/C=C/c4cccnc4)n[nH]c3c1)C(=O)N2 | < 5.00 | < 5.00 | 9.32 | < 5.00 | > 50 µM | 0.12 µM | > 50 µM | 0.19 µM | 4.6 µM | –
O=C1Nc2ccccc2/C1=C/c1ccccc1O | 4.54 | – | 5.21 | – | – | – | – | – | – | –
COc1ccc2c(c1)/C(=C\c1ccc3cn[nH]c3c1)C(=O)N2 | 5.00 | > 5.00 | 7.33 | > 5.00 | – | – | – | – | – | –
O=C1Nc2ccccc2/C1=C/c1ccc2[nH]ncc2c1 | 4.70 | 4.96 | 6.41 | 5.72 | – | – | – | – | – | –
O=C1Nc2ccccc2/C1=C\c1ccc2c(/C=C/c3ccccc3)n[nH]c2c1 | < 5.00 | < 5.00 | 7.38 | < 5.00 | – | 5.2 µM | > 50 µM | 4.4 µM | 12 µM | –
O=C1Nc2ccccc2/C1=C/c1ccc(O)cc1 | 4.60 | – | 6.64 | – | – | – | – | – | – | –
CNC(=O)c1ccccc1Sc1ccc2c(/C=C/c3ccccn3)n[nH]c2c1 [AXITINIB] | – | – | – | – | 2.7 µM | – | – | 1.3 µM | – | –
COc1cc(/C=C2\C(=O)N(C)c3ccc(Br)cc32)cc(Cl)c1O | < 5.00 | – | 5.21 | – | – | – | – | – | – | –
O=C1Nc2ccc(F)cc2/C1=C/c1ccc2cn[nH]c2c1 | 4.82 | 4.62 | 6.62 | < 5.00 | – | – | – | – | – | –

SMILES | pIC50 [1] | pIC50 [2] | pIC50 [3] | pIC50 [4] | GI50 (HCC1954) | GI50 (MCF7) | GI50 (MDA-MB-231) | GI50 (MDA-MB-468) | GI50 (SK-BR-3) | Papp [5]
O=C1Nc2ccccc2/C1=C\c1ccc2c(/C=C/c3cccnc3)n[nH]c2c1 | < 5.00 | < 5.00 | 8.70 | < 5.00 | 12 µM | 0.28 µM | > 50 µM | 0.29 µM | > 50 µM | –
O=C1Nc2ccc(I)cc2/C1=C/c1cc(Br)c(O)c(Br)c1 | 5.34 | – | 6.64 | – | – | – | – | – | – | –
CCc1ccc2c(c1)/C(=C\c1ccc3c(/C=C/c4cccnc4)n[nH]c3c1)C(=O)N2 | < 5.00 | < 5.00 | 8.80 | < 5.00 | 33 µM | 1.7 µM | > 50 µM | 0.09 µM | 13 µM | –
O=C1Nc2ccccc2/C1=C\c1ccc2c(/C=C/c3ccccn3)n[nH]c2c1 | < 5.00 | < 5.00 | 7.89 | < 5.00 | 30 µM | 1.7 µM | 8.1 µM | 0.78 µM | 1.2 µM | –
O=C1Nc2ccccc2/C1=C\c1ccc2cn[nH]c2c1 | 4.62 | < 5.00 | – | 5.24 | – | – | – | – | – | –
O=C1Nc2ccc(Cl)cc2/C1=C\c1ccc2cn[nH]c2c1 | < 5.00 | < 5.00 | 7.27 | < 5.00 | – | – | – | – | – | –
O=C1Nc2ccccc2/C1=C\c1ccc2c(/C=C/c3ccc(C(=O)O)cc3)n[nH]c2c1 | < 5.00 | < 5.00 | 9.09 | < 5.00 | 2 µM | 6.8 µM | > 50 µM | 0.8 µM | 16 µM | 2.1 ×10⁻⁶ cm/s
COc1cc(/C=C2\C(=O)Nc3ccc(Br)cc32)cc(Cl)c1O | 5.44 | – | 6.07 | – | – | – | – | – | – | –
COc1ccc2c(c1)/C(=C\c1ccc3c(/C=C/c4ccc(CN(C)C)cc4)n[nH]c3c1)C(=O)N2 | < 5.00 | < 5.00 | 9.49 | < 5.00 | 1.4 µM | < 0.01 µM | 0.01 µM | 0.03 µM | 0.03 µM | –
O=C1Nc2ccccc2/C1=C\c1ccc2[nH]nnc2c1 | 4.54 | < 5.00 | 5.66 | 5.05 | – | – | – | – | – | –
CNC(=O)c1ccc2c(c1)/C(=C\c1ccc3cn[nH]c3c1)C(=O)N2 | 4.31 | – | 5.00 | – | – | – | – | – | – | –
Cc1ccc2c(c1)/C(=C\c1ccc3c(/C=C/c4ccncc4)n[nH]c3c1)C(=O)N2 | < 5.00 | < 5.00 | 8.85 | < 5.00 | 13 µM | 0.07 µM | 5 µM | 0.12 µM | > 50 µM | –
O=C1Nc2ccc(O)cc2/C1=C\c1ccc2c(/C=C/c3ccncc3)n[nH]c2c1 | < 5.00 | < 5.00 | 9.05 | < 5.00 | > 50 µM | > 50 µM | – | 0.73 µM | > 50 µM | 4 ×10⁻⁶ cm/s
CC(=O)Nc1ccc2c(c1)NC(=O)/C2=C/c1ccc2cn[nH]c2c1 | < 5.00 | < 5.00 | 5.92 | 5.00 | – | – | – | – | – | –
O=C1Nc2ccc(Cl)cc2/C1=C\c1ccc2c(/C=C/c3ccncc3)n[nH]c2c1 | < 5.00 | < 5.00 | 8.64 | < 5.00 | > 50 µM | 0.16 µM | > 50 µM | 0.32 µM | > 50 µM | –

Reference: ChEMBL document CHEMBL2406977, “The discovery of PLK4 inhibitors: (E)-3-((1H-Indazol-6-yl)methylene)indolin-2-ones as novel antiproliferative agents” (J Med Chem, 2013)
